US20230339866A1, “Quinazoline compounds and the use thereof in the treatment of cancer” (TROBIO THERAPEUTICS PTY LTD, priority 2020, published 2023)

Key:
A549 (NSCLC) = experiment: Anti-proliferative activity (Cell-Titre luminescence) against A549 non-small cell lung cancer cells; type: cell-based; conditions: Homo sapiens, A549, 72 h, 72 h exposure, Cell-Titre luminescent reagent
Description: (§1) The ability of compounds of the invention to inhibit the proliferation of cancer cells representative of non-small cell lung cancer and ovarian cancer (Table 2), pancreatic cancer, colorectal cancer and prostate cancer (Table 3) was assessed. Briefly, a predetermined number of cells as calculated from cell growth assays for each of the cell lines employed were seeded into their respective culture medium (using ATCC culture parameters—http://www.atcc.org) and cultured for 24 h at 37° C. and 5% CO2 in 96-well culture plates. Once attached, each cell line was then exposed to various concentrations of each respective analogue (30, 10, 3, 1, 0.3 and 0.1 μM), cultured for a further 72 h and exposed to Cell-Titre luminescent reagent (100 μL/well) for a further 30 min. Luminescence was captured using an EnVision multilabel reader and the data for each analogue concentration compared against no treatment control. Cell viability was normalised to control (vehicle alone) and dose response curves, and half maximal effective concentration (EC50) values were determined using Graph Pad Prism 6 (nonlinear regression sigmoidal dose-response variable slope).

A2780 (ovarian) = experiment: Anti-proliferative activity (Cell-Titre luminescence) against A2780 ovarian cancer cells; type: cell-based; conditions: Homo sapiens, A2780, 72 h, 72 h exposure, Cell-Titre luminescent reagent
Description: as §1

Row | IC50 (A549 (NSCLC)) [µM] | IC50 (A2780 (ovarian)) [µM] | Compound
1 | > 30 | 18.9 | FC(F)(F)c1cccc(Nc2nc(NCCc3c[nH]cn3)c3ccccc3n2)c1 [Compound 79, N^4-(2-(1H-imidazol-4-yl)ethyl)-N^2-(3-(trifluoromethyl)phenyl)quinazoline-2,4-diamine]
2 | 4.45 | 7.16 | CCc1ccc(Nc2nc(NCCN3CCN(C)CC3)c3ccccc3n2)cc1 [Compound 55, N^2-(4-ethylphenyl)-N^4-(2-(4-methylpiperazin-1-yl)ethyl)quinazoline-2,4-diamine]
3 | 8.79 | 2.54 | FC(F)(F)c1cccc(CCNc2nc(NCCN3CCOCC3)c3ccccc3n2)c1 [Compound 113, N^4-(2-morpholinoethyl)-N^2-(3-(trifluoromethyl)phenethyl)quinazoline-2,4-diamine]
4 | > 30 | 7.47 | OCCNc1nc(NCCc2ccccc2)nc2ccccc12 [Compound 35, 2-((2-(phenethylamino)quinazolin-4-yl)amino)ethan-1-ol]
5 | 13.4 | 8.71 | COc1ccc(CCNc2nc(NCCN3CCN(C)CC3)c3ccccc3n2)cc1OC [Compound 137, N^2-(3,4-dimethoxyphenethyl)-N^4-(2-(4-methylpiperazin-1-yl)ethyl)quinazoline-2,4-diamine]
6 | 16.5 | 12.2 | CN1CCN(CCNc2nc(OCCc3cccc(C(F)(F)F)c3)nc3ccccc23)CC1 [Compound 150, N-(2-(4-methylpiperazin-1-yl)ethyl)-2-(3-(trifluoromethyl)phenethoxy)quinazolin-4-amine]
7 | 3.87 | 5.19 | OCCNc1nc(NCCc2cccc(F)c2)nc2ccccc12 [Compound 90, 2-((2-((3-fluorophenethyl)amino)quinazolin-4-yl)amino)ethan-1-ol]
8 | > 30 | > 30 | CN1CCN(CCNc2nc(-c3cccs3)nc3ccccc23)CC1 [Compound 10, N-(2-(4-methylpiperazin-1-yl)ethyl)-2-(thiophen-2-yl)quinazolin-4-amine]
9 | 6.65 | 3.91 | CN(C)CCNc1nc(NCCc2ccc(F)cc2)nc2ccccc12 [Compound 68, N^4-(2-(dimethylamino)ethyl)-N^2-(4-fluorophenethyl)quinazoline-2,4-diamine]
10 | 8.77 | 6.87 | COc1ccc(CNc2nc(NCCN3CCN(C)CC3)c3ccccc3n2)cc1 [Compound 49, N^2-(4-methoxybenzyl)-N^4-(2-(4-methylpiperazin-1-yl)ethyl)quinazoline-2,4-diamine]
11 | 3.17 | 2.68 | Cc1ccccc1CCNc1nc(NCCN2CCN(C)CC2)c2ccccc2n1 [Compound 122, N^2-(2-methylphenethyl)-N^4-(2-(4-methylpiperazin-1-yl)ethyl)quinazoline-2,4-diamine]
12 | 11.5 | 3 | CN1CCN(CCNc2nc(NCCc3ccc(C#N)cc3)nc3ccccc23)CC1 [Compound 131, 4-(2-((4-((2-(4-methylpiperazin-1-yl)ethyl)amino)quinazolin-2-yl)amino)ethyl)benzonitrile]
13 | > 30 | 22.5 | CN1CCN(CCNc2nc(N3CCCC3)nc3ccccc23)CC1 [Compound 16, N-(2-(4-methylpiperazin-1-yl)ethyl)-2-(pyrrolidin-1-yl)quinazolin-4-amine]
14 | 13.2 | 7.26 | COc1cc(CCNc2nc(NCCN3CCN(C)CC3)c3ccccc3n2)cc(OC)c1 [Compound 140, N^2-(3,5-dimethoxyphenethyl)-N^4-(2-(4-methylpiperazin-1-yl)ethyl)quinazoline-2,4-diamine]
15 | 9.4 | 1.95 | c1ccc2c(NCCc3c[nH]cn3)nc(-c3cc[nH]c3)nc2c1 [Compound 107, N-(2-(1H-imidazol-4-yl)ethyl)-2-(1H-pyrrol-3-yl)quinazolin-4-amine]
16 | 8.88 | 7.11 | CCc1ccc(CCNc2nc(NCCCN(C)C)c3ccccc3n2)cc1 [Compound 76, N^4-(3-(dimethylamino)propyl)-N^2-(4-ethylphenethyl)quinazoline-2,4-diamine]
17 | 6.07 | 1.1 | CN1CCN(CCNc2nc(NCCc3cc(F)cc(F)c3)nc3ccccc23)CC1 [Compound 138, N^2-(3,5-difluorophenethyl)-N^4-(2-(4-methylpiperazin-1-yl)ethyl)quinazoline-2,4-diamine]
18 | 4.05 | 1.92 | NCCNc1nc(NCCc2cccc(C(F)(F)F)c2)nc2ccccc12 [Compound 118, N^4-(2-aminoethyl)-N^2-(3-(trifluoromethyl)phenethyl)quinazoline-2,4-diamine]
19 | 2.36 | 0.937 | FC(F)(F)c1cccc(CCNc2nc(NCCN3CCCCC3)c3ccccc3n2)c1 [Compound 114, N^4-(2-(piperidin-1-yl)ethyl)-N^2-(3-(trifluoromethyl)phenethyl)quinazoline-2,4-diamine]

Row | IC50 (A549 (NSCLC)) [µM] | IC50 (A2780 (ovarian)) [µM] | Compound
20 | 24.1 | 9.05 | c1ccc2c(NCCc3c[nH]cn3)nc(-c3ccsc3)nc2c1 [Compound 105, N-(2-(1H-imidazol-4-yl)ethyl)-2-(thiophen-3-yl)quinazolin-4-amine]
21 | 5.6 | 1.19 | CN1CCN(CCNc2nc(NCCc3ccc(C(F)(F)F)cc3)nc3ccccc23)CC1 [Compound 52, N^4-(2-(4-methylpiperazin-1-yl)ethyl)-N^2-(4-(trifluoromethyl)phenethyl)quinazoline-2,4-diamine]
22 | 10.9 | 2.88 | CN1CCN(CCNc2nc(NCCc3ccc(Cl)cc3)nc3ccccc23)CC1 [Compound 130, N^2-(4-chlorophenethyl)-N^4-(2-(4-methylpiperazin-1-yl)ethyl)quinazoline-2,4-diamine]
23 | > 30 | 10.9 | CN1CCN(CCNc2nc(NCCc3cccnc3)nc3ccccc23)CC1 [Compound 145, N^4-(2-(4-methylpiperazin-1-yl)ethyl)-N^2-(2-(pyridin-3-yl)ethyl)quinazoline-2,4-diamine]
24 | 5.8 | 2.49 | COc1ccc(Nc2nc(NCCN3CCN(C)CC3)c3ccccc3n2)cc1 [Compound 44, N^2-(4-methoxyphenyl)-N^4-(2-(4-methylpiperazin-1-yl)ethyl)quinazoline-2,4-diamine]
25 | 7.5 | 13.1 | CCc1ccc(Nc2nc(NCCN(C)C)c3ccccc3n2)cc1 [Compound 62, N^4-(2-(dimethylamino)ethyl)-N^2-(4-ethylphenyl)quinazoline-2,4-diamine]
26 | > 30 | > 30 | CC(C)C(CNc1nc(N2CCCC2)nc2ccccc12)N1CCN(C)CC1 (centres unmarked) [Compound 8, N-(3-methyl-2-(4-methylpiperazin-1-yl)butyl)-2-(pyrrolidin-1-yl)quinazolin-4-amine]
27 | > 30 | > 30 | OCCNc1nc(-n2cccc2)nc2ccccc12 [Compound 25, 2-((2-(1H-pyrrol-1-yl)quinazolin-4-yl)amino)ethan-1-ol]
28 | 27.8 | 9.37 | CN1CCN(CCNc2nc(NCCc3ccccn3)nc3ccccc23)CC1 [Compound 144, N^4-(2-(4-methylpiperazin-1-yl)ethyl)-N^2-(2-(pyridin-2-yl)ethyl)quinazoline-2,4-diamine]
29 | > 30 | > 30 | COc1cc(CCNc2nc(NCCN3CCN(C)CC3)c3ccccc3n2)cc(OC)c1OC [Compound 142, N^4-(2-(4-methylpiperazin-1-yl)ethyl)-N^2-(3,4,5-trimethoxyphenethyl)quinazoline-2,4-diamine]
30 | > 30 | > 30 | CC(C)C(CNc1nc(-c2ccco2)nc2ccccc12)N1CCN(C)CC1 (centres unmarked) [Compound 6, 2-(furan-2-yl)-N-(3-methyl-2-(4-methylpiperazin-1-yl)butyl)quinazolin-4-amine]
31 | 7.45 | 1.32 | CN(C)CCCNc1nc(-c2cc[nH]c2)nc2ccccc12 [Compound 102, N^1-(2-(1H-pyrrol-3-yl)quinazolin-4-yl)-N^3,N^3-dimethylpropane-1,3-diamine]
32 | 15.6 | 8.43 | c1c[nH]c(-c2nc(NCCc3c[nH]cn3)c3ccccc3n2)c1 [Compound 106, N-(2-(1H-imidazol-4-yl)ethyl)-2-(1H-pyrrol-2-yl)quinazolin-4-amine]
33 | 5.57 | 4.59 | OCCCNc1nc(NCCc2cccc(F)c2)nc2ccccc12 [Compound 94, 3-((2-((3-fluorophenethyl)amino)quinazolin-4-yl)amino)propan-1-ol]
34 | 14.3 | 7.17 | CN1CCN(CCNc2nc(NCCc3ccc(N)cc3)nc3ccccc23)CC1 [Compound 133, N^2-(4-aminophenethyl)-N^4-(2-(4-methylpiperazin-1-yl)ethyl)quinazoline-2,4-diamine]
35 | 24.1 | 16.5 | CN(C)CCCNc1nc(-n2cccc2)nc2ccccc12 [Compound 103, N^1-(2-(1H-pyrrol-1-yl)quinazolin-4-yl)-N^3,N^3-dimethylpropane-1,3-diamine]
36 | 7.4 | 4.52 | COc1cccc(CNc2nc(NCCN3CCN(C)CC3)c3ccccc3n2)c1 [Compound 48, N^2-(3-methoxybenzyl)-N^4-(2-(4-methylpiperazin-1-yl)ethyl)quinazoline-2,4-diamine]
37 | 14.1 | 12.8 | COc1ccc(CNc2nc(NCCO)c3ccccc3n2)cc1 [Compound 34, 2-((2-((4-methoxybenzyl)amino)quinazolin-4-yl)amino)ethan-1-ol]
